# According to patent US7494824B2, “Interactive system for presenting and eliminating substances” (Max-Planck-Gesellschaft zur Förderung der Wissenschaften e. …, priority 1997, dated 2009):
# Key:
# thrombin = thrombin (Homo sapiens, UniProt P00734); settings: previous analyses, Dickneite G. et al.; cited from earlier work
# [1] = Immobilization of PEG urease on miniaturized experimental PMMA capillary dialyzer; settings: 2 mg on 50 cm^2 dialyzer, after the first circulation
# Description: (§1) As model enzyme, urease (EC 3.5.1.5., available from Sigma, order no. U 1500) is used. The preparation of a PEG-coupled urease preparation: 100 mg urease (type III, specific activity 20,000 to 30,000 U/g) are dissolved in 80 ml 0.1-mol borate buffer (pH 8) and added to 250 mg methoxy polyethylene glycol (25,000)-4-nitrophenyl carbonate and incubated for 24 h at 5° C. The reaction is stopped by a several times higher molar excess of TRIS, dialyzed against TRIS-HCl (pH 8) and developed in a HP-Q-sepharose column having a linear NaCl gradient (pH 8). The PEG urease conjugate elutes-at 180 to 200 mmol NaCl. The yield of PEG urease conjugate is 30-40%. The enzyme activity is measured by means of a urea assay. The cleaving activity is monitored by way of pH titration measuring and compared with non-conjugated urease. […] The urease coupled with 25 kD-polyethylene glycol is applied in a concentration of 2 mg (based on the protein content of the conjugate) to a miniaturized experimental capillary dialyzer having a surface of 50 cm^2. Already after the first circulation, more than 90% of the urease are immobilized on the surface. By the fifth recirculation cycle, the PEG urease is firmly installed on the surface of the membrane. […] A blood plasma solution (50 ml containing 30 mg urea) is applied to the urease-doped PMMA capillary dialyzer system. […]
# [2] = Urea breakdown in blood plasma solution on urease-doped PMMA capillary dialyzer system; format: biochemical
# Description: As model enzyme, urease (EC 3.5.1.5., available from Sigma, order no. U 1500) is used. The preparation of a PEG-coupled urease preparation: 100 mg urease (type III, specific activity 20,000 to 30,000 U/g) are dissolved in 80 ml 0.1-mol borate buffer (pH 8) and added to 250 mg methoxy polyethylene glycol (25,000)-4-nitrophenyl carbonate and incubated for 24 h at 5° C. The reaction is stopped by a several times higher molar excess of TRIS, dialyzed against TRIS-HCl (pH 8) and developed in a HP-Q-sepharose column having a linear NaCl gradient (pH 8). The PEG urease conjugate elutes-at 180 to 200 mmol NaCl. The yield of PEG urease conjugate is 30-40%. The enzyme activity is measured by means of a urea assay. The cleaving activity is monitored by way of pH titration measuring and compared with non-conjugated urease. […] The urease coupled with 25 kD-polyethylene glycol is applied in a concentration of 2 mg (based on the protein content of the conjugate) to a miniaturized experimental capillary dialyzer having a surface of 50 cm^2. Already after the first circulation, more than 90% of the urease are immobilized on the surface. By the fifth recirculation cycle, the PEG urease is firmly installed on the surface of the membrane. […] A blood plasma solution (50 ml containing 30 mg urea) is applied to the urease-doped PMMA capillary dialyzer system. In the eluate of the experimental PEG-urease-PMMA membrane, the remaining amounts of urea are identified after 5, 10, 20, and 30 minutes by way of an enzyme assay. […] The ammonia test in the blood is positive during the last 25 minutes of the experiment. From the analysis, it can be doubtlessly concluded that a pegylated enzyme, bonded to the PMMA membrane, develops a local enzyme activity and is able to generate corresponding specific interactions with its substrate in the circulating blood.
# [3] = Urea assay of enzyme activity, pH titration, compared with non-conjugated urease; format: biochemical
# Description: as §1
influence of pegylation on the ureolytic activity of the enzyme [3],Substance,thrombin inhibiting agent quality (thrombin),urease immobilized on the surface [1],"remaining urea in the eluate ([2]; 50 ml plasma containing 30 mg urea, after 30 min)","urea concentration in the blood plasma ([2]; 50 ml plasma containing 30 mg urea, within the first 10 min)",ammonia test in the blood ([2]; during the last 25 minutes of the experiment)
–,Mtr-Asn-D-Adf-Pip,highly specific and effective,–,–,–,–
slightly activity-increasing,"PEG urease: urease (EC 3.5.1.5., Sigma) coupled with 25 kD-polyethylene glycol",–,more than 90%,unbound urea cannot be identified anymore,decreases rapidly,positive
